Results taken from patent US9913828B2, “Benzothiazolone compound” (Novartis AG, priority 2011, dated 2018).
pEC50: −log10 of the molar value.

What was measured:
Serotonin 5-HT2C = target: T1, Serotonin 5-HT2C (Homo sapiens, UniProt P28335); assay: Aequorin agonist assay in CHO-K1 cells expressing recombinant Serotonin 5-HT2C and Gα16; assay type: cell-based
T1 construct: expressed in transfected cells; host or cells: CHO-K1 cells coexpressing mitochondrial apoaequorin and Gα16
Experimental: CHO-K1 cells coexpressing mitochondrial apoaequorin, recombinant Serotonin 5-HT2Cne and the promiscuous G protein Gα16, grown to mid-log phase in culture media without antibiotics were detached with PBS-EDTA, centrifuged and resuspended in assay buffer (DMEM/HAM's F12 with HEPES, without phenol red+0.1% BSA protease free) at a concentration of 1×10^6 cells/ml. Cells were incubated at room temperature for at least 4 h with coelenterazine h. […] For agonist testing, 50 μL of cell suspension were mixed with 50 μL of test or reference agonist in a 96-well plate. The resulting emission of light is recorded using Hamamatsu Functional Drug Screening System 6000 (FDSS 6000) luminometer. Agonist activity of test compound was expressed as a percentage of the activity of the reference agonist at its EC100 concentration.

[1] = Comparative solubilities in H2O with pH adjustment; assay type: physicochemical
Experimental: The relative solubilities of the free base form and the acetate and glycolate salt forms of Compound A were analysed and the results are show in the table below. Solutions were titrated with addition of HCl or NaOH for pH adjustment. The improved aqueous solubilities of the acetate and glycolate salt forms relative to the free base form of Compound A make the acetate and glycolate salts of Compound A more suitable for subcutaneous injection or infusion.

Rhesus monkeys = assay: Heart rate in vivo in rhesus monkeys after single s.c. administration; parameters: species or system rhesus monkey; details: s.c. bolus, up to 0.03 mg/kg; compared to formoterol
Experimental: Rhesus monkeys, 24 females with body weight around 4 to 8 kg, were randomized into 4 groups of n=6. The animals were restrained on a chair up to 4 hours after single subcutaneous administration of compounds, and then returned to their pens. Heart rates were measured using a Surgivet V3304 device. Values are expressed as means±SEM (n=6).

[2] = tested on: isolated Langendorff perfused rabbit hearts; assay: Automaticity in isolated Langendorff perfused rabbit hearts
β2 AR = β2 AR (Homo sapiens, UniProt P07550); assay: cAMP response in CHO cells stably transfected with human β2 adrenoceptor (Test 1)
α1A AR = target: T2, α1A AR (Homo sapiens, UniProt P35348); assay: Ca2+ FLIPR assay in human adrenergic Alpha1A CHO-K1 cell line (Test 1); assay type: cell-based; details: read-out: CHO cells EC50 α1A AR
T2 sequence (P35348 1-466): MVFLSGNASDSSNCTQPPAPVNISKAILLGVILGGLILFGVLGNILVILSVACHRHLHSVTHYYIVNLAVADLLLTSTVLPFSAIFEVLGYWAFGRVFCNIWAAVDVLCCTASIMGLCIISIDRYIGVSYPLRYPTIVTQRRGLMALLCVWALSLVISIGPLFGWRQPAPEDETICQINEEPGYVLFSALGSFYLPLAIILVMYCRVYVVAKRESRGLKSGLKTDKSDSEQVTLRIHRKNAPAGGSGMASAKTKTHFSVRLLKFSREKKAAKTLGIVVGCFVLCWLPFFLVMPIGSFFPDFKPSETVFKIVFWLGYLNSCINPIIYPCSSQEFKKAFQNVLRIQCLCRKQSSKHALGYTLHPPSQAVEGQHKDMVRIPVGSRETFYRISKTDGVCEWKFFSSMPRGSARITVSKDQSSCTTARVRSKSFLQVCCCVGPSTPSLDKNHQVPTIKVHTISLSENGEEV
Experimental: Compounds acting as agonists induce a transient increase of intracellular calcium. This was recorded on the FLIPR system. A measurement of the signal baseline was first recorded every second for 2 minutes before the injection of the compounds. […] Low controls (unstimulated cells) were determined with the addition of 5 μL of assay buffer.

[3] = tested on: Wistar Han (W-H) IGS rats; assay: Heart rate in vivo in rats after s.c. bolus; parameters: species or system rat; details: up to 0.3 mg/kg, compared to formoterol
Text: Wistar Han (W-H) IGS (International Genetic Standard) rats (Crl:WI(Han)) were purchased from Charles River Laboratories. Femoral arterial and venous catheters were chronically implanted and exteriorized through a spring tether-swivel system and housed in specialized cages. Arterial catheter was connected to a pressure transducer to continuously measure pulse pressure, mean arterial pressure and heart rate, which was derived from the blood pressure signal, via a digital data acquisition system. Compounds were administered via s.c catheter implanted through the skin buttun. Values are expressed as means±SEM (n=3).

[4] = tested on: isolated rabbit sino-atrial nodes; assay: Sino-atrial node beating rate in isolated rabbit right atrium
Experimental: New Zealand white female rabbits were killed by exsanguination after a deep anesthesia using a mixture of ketamine/xylazine, i.v. The heart was quickly removed and placed in Tyrode's solution. […] The right atrium was separated from the rest of the heart. The preparations were mounted in a tissue bath and kept at 37±0.5° C. for at least one hour stabilization. Action potentials (AP) were intracellularly recorded with a standard glass microelectrode filled with 3 M KCl, connected to a high input impedance-neutralizing amplifier (VF-180 microelectrode amplifier, Bio-Logic). […] After one hour of stabilization, compounds were added to the Tyrode's solution at the increasing concentrations, each concentration being maintained for 30 minutes. There was no wash-out between two concentrations. Electrophysiological measurements were made by analyzing action potentials during the experimental protocol at the end of the 30 minute perfusion period. The SA spontaneous frequency was evaluated by counting the number of beats every 10 seconds to express the results in number of beats per minute (bpm). Data were expressed as mean±SEM.

T1 sequence (P28335 33-458): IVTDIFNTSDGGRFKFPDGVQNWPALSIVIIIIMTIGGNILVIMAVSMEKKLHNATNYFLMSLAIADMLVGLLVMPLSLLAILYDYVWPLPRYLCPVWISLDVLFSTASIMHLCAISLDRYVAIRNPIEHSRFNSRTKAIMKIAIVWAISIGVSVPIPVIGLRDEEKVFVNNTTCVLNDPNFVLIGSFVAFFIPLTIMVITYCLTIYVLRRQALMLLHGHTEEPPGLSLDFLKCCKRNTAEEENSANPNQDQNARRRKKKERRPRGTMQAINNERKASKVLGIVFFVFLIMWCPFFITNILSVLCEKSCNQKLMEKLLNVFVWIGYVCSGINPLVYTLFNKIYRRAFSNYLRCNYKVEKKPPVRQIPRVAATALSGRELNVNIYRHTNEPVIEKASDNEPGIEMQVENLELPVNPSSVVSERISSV
Sequence of β2 AR (P07550 whole entry): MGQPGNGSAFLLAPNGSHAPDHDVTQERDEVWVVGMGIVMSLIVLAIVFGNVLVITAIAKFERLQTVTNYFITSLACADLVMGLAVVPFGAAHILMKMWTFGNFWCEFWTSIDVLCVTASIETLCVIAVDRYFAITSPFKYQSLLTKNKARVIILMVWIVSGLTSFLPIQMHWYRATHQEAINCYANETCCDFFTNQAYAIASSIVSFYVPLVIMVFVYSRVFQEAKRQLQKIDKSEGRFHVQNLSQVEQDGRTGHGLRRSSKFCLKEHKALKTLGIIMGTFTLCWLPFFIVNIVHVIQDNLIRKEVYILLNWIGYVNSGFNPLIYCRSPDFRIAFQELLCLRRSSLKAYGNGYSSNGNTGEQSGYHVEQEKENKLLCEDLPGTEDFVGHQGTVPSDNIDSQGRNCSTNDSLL

SMILES	melting point	fold less active on 5-HT2C when compared to the racemate or the (S) enantiomer (Serotonin 5-HT2C)	fold less active on 5-HT2C when compared to β2 AR agonist activity (Serotonin 5-HT2C; 5-HT2C EC50 versus β2 AR EC50) [fold]	Compound A free base solubility in H2O, Conc ([1]; pH 7.3) [µg/mL]	Compound A free base solubility in H2O, Conc ([1]; pH 7.8) [µg/mL]	heart rate change in rhesus monkeys (Rhesus monkeys)	direct effects on the pacemaker activity ([2]; compared to Formoterol)	Automaticity, maximum increase (n = 3) ([2]; isolated rabbit heart)	pEC50 (β2 AR)	pEC50 (α1A AR)	heart rate change in rats [3]	Sino-Atrial node beating rate, maximum increase (n = 6) [4]
CCCCOc1ccc(CC(C)(C)NC[C@H](O)c2cc(O)cc3[nH]c(=O)sc23)cc1.O=C(O)CO [Compound A glycolate salt, (R)-7-(2-(1-(4-butoxyphenyl)-2-methylpropan-2-ylamino)-1-hydroxyethyl)-5-hydroxybenzo[d]thiazol-2(3H)-one glycolate salt]	~ 188 °C	–	–	–	–	–	–	–	–	–	–	–
CCCCOc1ccc(CC(C)(C)NC[C@H](O)c2cc(O)cc3[nH]c(=O)sc23)cc1 [Compound A, (R)-7-(2-(1-(4-butoxyphenyl)-2-methylpropan-2-ylamino)-1-hydroxyethyl)-5-hydroxybenzo[d]thiazol-2(3H)-one]	–	over 10 fold	50	<10	<10	less heart rate increase	less direct effects	+17%	> 8.00	< 5.00	less heart rate increases	+6.2%
